Some test systems named below: OVCAR-8 ovarian; SK-MEL-2 melanoma; HCC-2998 colon; TK-10 renal; NCI-H23 lung; SN12C renal; SK-MEL-5 melanoma; NCI-H226 lung; A549 NSCLC; M14 melanoma; SF-295 CNS; CCRF-CEM leukemia; HT29 colon; OVCAR-5 ovarian; NCI/ADR-RES ovarian; SNB-19 CNS.
Holding throughout (experiment): NCI tumour cell line growth inhibition, 48 h

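Five concentrations, 48 hours, 96-well plates. TGI: total growth inhibition.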

With `C=CCC1(OC(C)=O)C2OC(=O)C1(O)OCC2O` (centres undefined), the TGI in the assay on OVCAR-8 ovarian, with SK-MEL-2 melanoma, in the assay with HCC-2998 colon, in the assay with TK-10 renal, in the assay on NCI-H23 lung and with SN12C renal was above 100 µM in each case. Besides, the TGI in the assay on SK-MEL-5 melanoma, in the assay on NCI-H226 lung, in the assay with A549 NSCLC, in the assay with M14 melanoma, in the assay with SF-295 CNS and in the assay with CCRF-CEM leukemia was above 100 µM in each case. Further, the TGI in the assay with HT29 colon, in the assay on OVCAR-5 ovarian, in the assay on NCI/ADR-RES ovarian and in the assay on SNB-19 CNS was above 100 µM in each case.
With `Cc1nn(C(=O)c2ccc(Cl)cc2)c2c1C(c1ccccc1[N+](=O)[O-])SC(N)=N2` (centres undefined), the TGI in the assay on OVCAR-8 ovarian, with SK-MEL-2 melanoma, in the assay with HCC-2998 colon, with TK-10 renal, with NCI-H23 lung and in the assay on SN12C renal was above 10 µM throughout. In addition, the TGI with SK-MEL-5 melanoma, in the assay on NCI-H226 lung, in the assay with A549 NSCLC, in the assay with M14 melanoma, in the assay with SF-295 CNS and in the assay with CCRF-CEM leukemia was above 10 µM in each case. For the same molecule, the TGI in the assay with HT29 colon, with OVCAR-5 ovarian, in the assay on NCI/ADR-RES ovarian and in the assay on SNB-19 CNS was above 10 µM each time.
For the molecule `C[C@@H](c1ccccc1)N1CN(C(=O)OCc2ccccc2)C(C)(C)CC1=O`, the TGI in the assay on OVCAR-8 ovarian, in the assay on SK-MEL-2 melanoma, in the assay with HCC-2998 colon, in the assay with TK-10 renal, in the assay with NCI-H23 lung and with SN12C renal was above 100 µM each time. Further, the TGI in the assay on SK-MEL-5 melanoma, in the assay on NCI-H226 lung, with A549 NSCLC, in the assay on M14 melanoma, in the assay with SF-295 CNS and with CCRF-CEM leukemia was above 100 µM throughout. The TGI in the assay on HT29 colon, with OVCAR-5 ovarian, in the assay on NCI/ADR-RES ovarian and in the assay with SNB-19 CNS was above 100 µM in each case.
Consider `NC(=O)c1cc2ccc(O)cc2oc1=Nc1ccccc1`, for which the TGI with OVCAR-8 ovarian is above 100 µM; in the assay on SK-MEL-2 melanoma, 53 µM; with HCC-2998 colon it was 78.8 µM; with TK-10 renal, above 100 µM; in the assay with NCI-H23 lung, 56 µM; with SN12C renal, 66 µM. Further, the TGI in the assay with SK-MEL-5 melanoma was 69 µM; in the assay with NCI-H226 lung it was 88.6 µM; in the assay with A549 NSCLC it was above 100 µM; in the assay with M14 melanoma, above 100 µM; in the assay with SF-295 CNS, above 100 µM; in the assay with CCRF-CEM leukemia, above 100 µM. Further, the TGI in the assay on HT29 colon, with OVCAR-5 ovarian, in the assay on NCI/ADR-RES ovarian and in the assay on SNB-19 CNS was above 100 µM each time.
As for `CN(C)C(=S)/N=c1\ssc(=S)n1Cc1ccccc1`, the TGI is 17.7 µM in the assay with OVCAR-8 ovarian; 9.67 µM in the assay with SK-MEL-2 melanoma; above 27.7 µM with HCC-2998 colon; 47.1 µM in the assay with TK-10 renal; 24.8 µM in the assay on NCI-H23 lung; above 63.1 µM in the assay with SN12C renal. Besides, the TGI was 18.3 µM in the assay on SK-MEL-5 melanoma; 28 µM in the assay on NCI-H226 lung; 56 µM with A549 NSCLC; 13 µM in the assay with M14 melanoma; 6.29 µM with SF-295 CNS; 49.6 µM with CCRF-CEM leukemia. In addition, the TGI in the assay on HT29 colon was 11.7 µM; in the assay on OVCAR-5 ovarian, above 63.1 µM; in the assay with NCI/ADR-RES ovarian, 0.401 µM; with SNB-19 CNS, above 56.2 µM.
Regarding `Cc1ccc(/C=C/c2nnc(N/N=C/c3ccc4c(c3)OCO4)[nH]c2=O)cc1`, the TGI is 34.7 µM with OVCAR-8 ovarian; 78.9 µM with SK-MEL-2 melanoma; 79.8 µM in the assay with HCC-2998 colon; 58.6 µM in the assay on TK-10 renal; 32.5 µM in the assay with NCI-H23 lung; 38.1 µM with SN12C renal. For the same molecule, the TGI in the assay on SK-MEL-5 melanoma is above 100 µM; with NCI-H226 lung, 72.5 µM; in the assay on A549 NSCLC, above 100 µM; with M14 melanoma it was above 100 µM; in the assay on SF-295 CNS, above 100 µM; in the assay on CCRF-CEM leukemia, 45.4 µM. In addition, the TGI with HT29 colon is 53.7 µM; in the assay on OVCAR-5 ovarian, above 100 µM; in the assay on NCI/ADR-RES ovarian it was 37.5 µM; with SNB-19 CNS it was 37.4 µM.
For `O=C(CCc1ccc(O)c(O)c1)NCCc1cc(O)cc(O)c1`, the TGI in the assay on OVCAR-8 ovarian, in the assay with SK-MEL-2 melanoma, in the assay on HCC-2998 colon, with TK-10 renal, in the assay with NCI-H23 lung and in the assay with SN12C renal was above 100 µM in each case. Also, the TGI with SK-MEL-5 melanoma, with NCI-H226 lung, in the assay on A549 NSCLC, in the assay with M14 melanoma, in the assay with SF-295 CNS and in the assay with CCRF-CEM leukemia was above 100 µM throughout. Further, the TGI in the assay with HT29 colon, with OVCAR-5 ovarian, in the assay on NCI/ADR-RES ovarian and in the assay with SNB-19 CNS was above 100 µM in each case.
Consider `CC(=O)OCC1OC(OC2CC3C(C)(C)C(OC(C)=O)CC[C@]3(C)C3CCC45CC4(CCC5[C@@H](C)C[C@H](O)C(O)C(C)(C)O)[C@]23C)C(O)C(O)C1O` (some centres undefined), for which the TGI with OVCAR-8 ovarian, in the assay on SK-MEL-2 melanoma, in the assay on HCC-2998 colon, in the assay on TK-10 renal, in the assay with NCI-H23 lung and in the assay on SN12C renal was above 10 µM each time. Besides, the TGI with SK-MEL-5 melanoma, with NCI-H226 lung, in the assay with A549 NSCLC, in the assay with M14 melanoma, with SF-295 CNS and in the assay with CCRF-CEM leukemia was above 10 µM throughout. Further, the TGI with HT29 colon, in the assay with OVCAR-5 ovarian, with NCI/ADR-RES ovarian and with SNB-19 CNS was above 10 µM in each case.
As for `Cc1cc(N(CCC#N)CCC#N)ccc1/C(N=Nc1ccc(C(=O)O)cc1)=N\NC(=O)c1cc(Cl)ccc1O`, the TGI is 93.1 µM in the assay on OVCAR-8 ovarian; above 100 µM with SK-MEL-2 melanoma; above 100 µM with HCC-2998 colon; above 100 µM in the assay on TK-10 renal; above 100 µM with NCI-H23 lung; above 100 µM in the assay with SN12C renal. In addition, the TGI with SK-MEL-5 melanoma is above 100 µM; with NCI-H226 lung it was 49.9 µM; in the assay with A549 NSCLC, above 100 µM; in the assay on M14 melanoma, above 100 µM; in the assay with SF-295 CNS, 34.7 µM; with CCRF-CEM leukemia, above 100 µM. Also, the TGI in the assay with HT29 colon was above 100 µM; with OVCAR-5 ovarian, above 100 µM; with NCI/ADR-RES ovarian, above 100 µM; with SNB-19 CNS, 55.9 µM.

The values are drawn from PubChem BioAssay (NCI).
